Values joined by “and” are separate entries in the source; they are usually repeats but may differ in a detail not shown here. Equal entries are not always repeated. Where two headings read alike, the source gives them in different places.
What was measured:
[1] = target: T1, AURKA (Homo sapiens, UniProt O14965); assay: Liability panel screening by DSF: AURKA; assay type: binding; conditions: read-out: Mean ΔTM AURKA
T1 construct: made in house
T1 sequence (O14965 1-403): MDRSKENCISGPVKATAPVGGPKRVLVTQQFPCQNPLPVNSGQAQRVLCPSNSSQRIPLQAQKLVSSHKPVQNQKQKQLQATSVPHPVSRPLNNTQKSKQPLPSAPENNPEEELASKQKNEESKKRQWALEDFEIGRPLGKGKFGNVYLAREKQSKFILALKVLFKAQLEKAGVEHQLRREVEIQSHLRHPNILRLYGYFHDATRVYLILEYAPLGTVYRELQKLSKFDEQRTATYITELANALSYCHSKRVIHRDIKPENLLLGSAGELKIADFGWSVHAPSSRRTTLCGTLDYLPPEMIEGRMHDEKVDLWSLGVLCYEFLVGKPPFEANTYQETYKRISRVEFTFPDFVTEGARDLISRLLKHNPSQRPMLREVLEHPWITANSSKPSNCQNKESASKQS
Summary of the method: (§1)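 Thermal shift: in-house recombinant protein at 2 µM in 10 mM HEPES pH 7.5 with 500 mM NaCl, SYPRO Orange 1:1000, heated at 3 °C/min to 85 °C in technical duplicates. Tm is the Boltzmann inflection point, reported as ∆Tm in K.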

[2] = target: T2, BRPF1 (Homo sapiens, UniProt P55201); assay: Liability panel screening by DSF: BRPF1; assay type: binding; conditions: read-out: Mean ΔTM BRPF1
T2 construct: This panel comprised ten highly ligandable kinases and bromodomains; made in house
T2 sequence (P55201 628-732 limits assumed): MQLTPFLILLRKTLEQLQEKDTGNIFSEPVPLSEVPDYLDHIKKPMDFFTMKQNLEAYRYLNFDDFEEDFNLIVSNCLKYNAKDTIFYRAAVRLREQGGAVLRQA
Summary of the method: as §1

[3] = tested on: HEK293T cells; assay: Cytotoxicity: apoptosis induction (caspase-3/7 DEVD fluorogenic DNA dye); conditions: 1 µM; HEK293T, 24 h; apoptotic cell count normalized to 0.1% DMSO; single replicates
[4] = tested on: HEK293T cells; assay: Cytotoxicity: necrosis induction (red fluorescent dye for permeable plasma membranes); assay type: cell-based; conditions: 1 µM, 24 h, necrotic cell count normalized to 0.1% DMSO, single replicates;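 further: compounds applied in DMEM high glucose with 0.1% FCS and 0.1% DMSO, necrotic HEK293T cells counted by red staining of cells whose plasma membranes had become permeable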
[5] = target: T3, CSNK1D (Homo sapiens, UniProt P48730); assay: Liability panel screening by DSF: CSNK1D; assay type: binding; conditions: read-out: Mean ΔTM CSNK1D
T3 construct: made in house
T3 sequence (P48730 whole entry, species assumed): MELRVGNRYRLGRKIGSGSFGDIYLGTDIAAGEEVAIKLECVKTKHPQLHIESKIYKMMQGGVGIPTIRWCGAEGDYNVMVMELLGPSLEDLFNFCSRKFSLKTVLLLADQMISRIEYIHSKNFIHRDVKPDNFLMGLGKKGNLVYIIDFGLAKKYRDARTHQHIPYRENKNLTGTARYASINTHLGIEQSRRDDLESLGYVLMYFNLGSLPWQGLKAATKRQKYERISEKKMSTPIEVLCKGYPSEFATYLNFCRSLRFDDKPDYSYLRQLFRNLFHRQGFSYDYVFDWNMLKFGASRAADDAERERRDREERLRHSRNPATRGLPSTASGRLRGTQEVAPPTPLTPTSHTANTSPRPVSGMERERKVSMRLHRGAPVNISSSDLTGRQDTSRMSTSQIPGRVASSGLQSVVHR
Summary of the method: as §1

[6] = tested on: ATF6 activity in Hela ATF6 reporter cells; assay: Endoplasmic reticulum stress assay (ATF6 Renilla luciferase reporter, tunicamycin); assay type: cell-based; conditions: for ATF6 activity (tunicamycin-induced endoplasmic reticulum stress): Hela ATF6 reporter cells, tunicamycin 100 ng/mL, 18 h, compounds at recommended concentrations, n = 5; for activity at 1 µM: Homo sapiens, HeLa, single replicates n=1 to n=5, read-out: ER stress [rel. ATF6 activity]
Summary of the method: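 ER stress was induced by 100 ng/mL tunicamycin added 4 h after compound (0.1% DMSO) to HeLa ATF6 reporter cells. After 18 h more, Renilla luciferase signal was read and expressed relative to DMSO control, n=5 biological replicates.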

[7] = tested on: Gal4-VP16; assay type: cell-based; conditions: 1 µM; vs. DMSO ctrl; single replicates n=1-3
[8] = target: T4, ABL1 (Homo sapiens, UniProt P00519); assay: Liability panel screening by DSF: ABL1; assay type: binding; conditions: read-out: Mean ΔTM ABL1
T4 construct: made in house
T4 sequence (P00519 whole entry, species assumed): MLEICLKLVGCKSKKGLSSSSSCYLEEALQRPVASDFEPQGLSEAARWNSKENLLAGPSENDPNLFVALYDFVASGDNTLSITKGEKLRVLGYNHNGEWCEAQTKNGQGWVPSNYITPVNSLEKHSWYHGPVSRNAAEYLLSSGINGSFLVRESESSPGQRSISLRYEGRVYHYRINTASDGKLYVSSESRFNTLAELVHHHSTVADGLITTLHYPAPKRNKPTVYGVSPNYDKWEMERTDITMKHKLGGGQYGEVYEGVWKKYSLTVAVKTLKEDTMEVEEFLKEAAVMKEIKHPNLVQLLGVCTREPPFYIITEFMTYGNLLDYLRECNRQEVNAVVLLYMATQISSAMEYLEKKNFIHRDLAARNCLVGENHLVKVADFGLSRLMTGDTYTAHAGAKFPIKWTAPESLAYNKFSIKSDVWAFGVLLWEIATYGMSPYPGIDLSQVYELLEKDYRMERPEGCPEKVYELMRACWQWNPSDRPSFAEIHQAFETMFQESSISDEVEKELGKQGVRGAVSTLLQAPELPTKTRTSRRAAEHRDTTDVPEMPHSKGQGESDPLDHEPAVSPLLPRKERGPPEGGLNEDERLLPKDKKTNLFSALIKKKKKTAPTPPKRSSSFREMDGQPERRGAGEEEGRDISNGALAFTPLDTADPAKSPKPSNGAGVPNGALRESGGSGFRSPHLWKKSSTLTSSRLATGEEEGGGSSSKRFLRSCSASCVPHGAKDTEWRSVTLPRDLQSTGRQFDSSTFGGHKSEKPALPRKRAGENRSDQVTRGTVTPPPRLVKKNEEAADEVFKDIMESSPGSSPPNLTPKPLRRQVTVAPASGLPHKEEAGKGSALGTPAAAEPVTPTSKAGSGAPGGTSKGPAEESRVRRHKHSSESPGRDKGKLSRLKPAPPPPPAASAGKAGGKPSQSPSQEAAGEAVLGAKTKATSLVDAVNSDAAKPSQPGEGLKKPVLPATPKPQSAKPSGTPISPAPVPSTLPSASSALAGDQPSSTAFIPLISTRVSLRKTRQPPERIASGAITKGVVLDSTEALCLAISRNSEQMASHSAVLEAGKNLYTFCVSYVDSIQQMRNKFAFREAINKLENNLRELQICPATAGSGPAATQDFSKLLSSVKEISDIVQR
Summary of the method: as §1

[9] = tested on: HEK293T cells; assay: Cytotoxicity: metabolic activity (WST-8 / CCK-8 assay); conditions: 1 µM; HEK293T, 24 h; WST-8; normalized to 0.1% DMSO; single replicates
[10] = target: T5, TRIM24 (Homo sapiens, UniProt O15164); assay: Liability panel screening by DSF: TRIM24; assay type: binding; conditions: read-out: Mean ΔTM TRIM24
T5 construct: This panel comprised ten highly ligandable kinases and bromodomains; made in house
T5 sequence (O15164 899-1004 limits assumed): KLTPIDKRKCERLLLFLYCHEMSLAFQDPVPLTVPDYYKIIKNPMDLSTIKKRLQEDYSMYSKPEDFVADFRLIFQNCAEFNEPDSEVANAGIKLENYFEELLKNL
Summary of the method: as §1

[11] = tested on: NF-κB activity in HEK293 NF-κB reporter cells; assay: NF-kB activity assay (GFP reporter, ionomycin/PMA); assay type: cell-based; conditions: for Mean NFκB response: n=3; for NF-κB activity (inflammatory response to ionomycin/PMA): HEK293 NF-κB reporter cells, compounds at recommended concentrations, imaged over 24 h, n = 3
Summary of the method: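 Reporter readout: GFP-expressing cells normalized to confluence, imaged every 90 min across 24 h after ionomycin (100 ng/mL)/PMA (10 ng/mL) stimulation of HEK293 cells pre-treated 4 h with compound (0.1% DMSO); triplicate independent experiments.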

[12] = tested on: HEK293T cells; assay: Cytotoxicity: growth-rate (change in confluence over 24 h); conditions: 1 µM, normalized to 0.1% DMSO control, single replicates (n=1...)
[13] = target: T6, GSK3B (Homo sapiens, UniProt P49841); assay: Liability panel screening by DSF: GSK3B; assay type: binding; conditions: read-out: Mean ΔTM GSK3B
T6 construct: made in house
T6 sequence (P49841 whole entry, species assumed): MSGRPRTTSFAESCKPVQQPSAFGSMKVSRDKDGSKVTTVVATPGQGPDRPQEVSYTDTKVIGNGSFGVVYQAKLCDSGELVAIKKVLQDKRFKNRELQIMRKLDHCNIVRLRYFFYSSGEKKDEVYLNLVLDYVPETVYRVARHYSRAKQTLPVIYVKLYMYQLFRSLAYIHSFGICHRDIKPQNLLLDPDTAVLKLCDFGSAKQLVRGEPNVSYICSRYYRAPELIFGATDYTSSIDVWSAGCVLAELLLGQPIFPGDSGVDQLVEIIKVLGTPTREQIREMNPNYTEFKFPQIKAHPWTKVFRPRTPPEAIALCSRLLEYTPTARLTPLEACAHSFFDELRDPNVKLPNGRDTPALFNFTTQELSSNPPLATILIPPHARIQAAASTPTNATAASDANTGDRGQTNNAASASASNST

[14] = target: T7, MAPK1 (Homo sapiens, UniProt P28482); assay: Liability panel screening by DSF: MAPK1; assay type: binding; conditions: DSF, 20 µM, n=2; read-out: Mean ΔTM MAPK1
T7 construct: made in house
T7 sequence (P28482 whole entry, species assumed): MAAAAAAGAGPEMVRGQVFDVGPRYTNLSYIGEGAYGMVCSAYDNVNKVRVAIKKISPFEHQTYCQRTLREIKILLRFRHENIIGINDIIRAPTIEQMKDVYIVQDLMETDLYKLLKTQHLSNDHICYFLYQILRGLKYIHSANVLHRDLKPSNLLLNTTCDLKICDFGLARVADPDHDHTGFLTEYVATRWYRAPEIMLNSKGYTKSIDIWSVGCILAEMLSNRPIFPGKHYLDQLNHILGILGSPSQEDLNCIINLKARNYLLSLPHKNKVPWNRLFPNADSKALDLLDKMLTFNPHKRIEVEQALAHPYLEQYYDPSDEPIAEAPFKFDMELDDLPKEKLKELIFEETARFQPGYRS
Summary of the method: as §1

[15] = target: T8, FGFR3 (Homo sapiens, UniProt P22607); assay: Liability panel screening by DSF: FGFR3; assay type: binding; conditions: read-out: Mean ΔTM FGFR3
T8 construct: made in house
T8 sequence (P22607 23-806, species assumed): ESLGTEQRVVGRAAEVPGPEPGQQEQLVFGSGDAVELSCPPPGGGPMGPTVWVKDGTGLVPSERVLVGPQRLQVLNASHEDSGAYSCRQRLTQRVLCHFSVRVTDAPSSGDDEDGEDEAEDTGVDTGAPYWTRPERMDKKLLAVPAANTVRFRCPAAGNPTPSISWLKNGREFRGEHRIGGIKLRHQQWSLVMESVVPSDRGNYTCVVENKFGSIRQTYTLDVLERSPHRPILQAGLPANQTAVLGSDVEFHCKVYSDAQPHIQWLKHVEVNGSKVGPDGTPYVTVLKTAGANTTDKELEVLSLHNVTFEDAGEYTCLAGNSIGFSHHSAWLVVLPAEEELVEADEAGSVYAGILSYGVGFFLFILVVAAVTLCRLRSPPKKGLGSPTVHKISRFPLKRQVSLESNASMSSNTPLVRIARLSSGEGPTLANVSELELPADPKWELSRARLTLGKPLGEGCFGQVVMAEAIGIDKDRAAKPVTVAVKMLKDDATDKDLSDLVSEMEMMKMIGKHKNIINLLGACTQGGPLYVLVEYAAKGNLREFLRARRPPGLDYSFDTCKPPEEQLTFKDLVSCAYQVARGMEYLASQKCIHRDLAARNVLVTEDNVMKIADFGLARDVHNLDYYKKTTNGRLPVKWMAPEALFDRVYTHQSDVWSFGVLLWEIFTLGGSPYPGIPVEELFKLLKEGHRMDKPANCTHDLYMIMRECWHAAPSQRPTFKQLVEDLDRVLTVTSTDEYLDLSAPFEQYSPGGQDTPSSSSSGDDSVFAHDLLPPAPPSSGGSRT
Summary of the method: as §1

[16] = target: T9, BRD4 (Homo sapiens, UniProt O60885); assay: Liability panel screening by DSF: BRD4; assay type: binding; conditions: read-out: Mean ΔTM BRD4
T9 construct: This panel comprised ten highly ligandable kinases and bromodomains; made in house
Summary of the method: as §1

[17] = target: T10, CDK2 (Homo sapiens, UniProt P24941); assay: Liability panel screening by DSF: CDK2; assay type: binding; conditions: read-out: Mean ΔTM CDK2
T10 construct: made in house
Summary of the method: as §1

[18] = tested on: NR3A1 (ERα); conditions: cited from earlier work

Structure (SMILES)	Apoptosis induction [AI] [3]	Necrosis induction [NI] [4]	ATF6 activity (tunicamycin-induced endoplasmic reticulum stress) [6]	activity at 1 µM [6]	Metabolic activity [MA] [9]	Mean NFκB response ([11]; 1 µM, 1,5 h)	Mean NFκB response ([11]; 1 µM, 4,5 h)	Mean NFκB response ([11]; 1 µM, 7,5 h)	Mean NFκB response ([11]; 1 µM, 10,5 h)	Mean NFκB response ([11]; 1 µM, 13,5 h)	Mean NFκB response ([11]; 1 µM, 16,6 h)	Mean NFκB response ([11]; 1 µM, 19,5 h)	Mean NFκB response ([11]; 1 µM, 22,5 h)	Mean NFκB response ([11]; 1 µM, 3 h)	Mean NFκB response ([11]; 1 µM, 6 h)	Mean NFκB response ([11]; 1 µM, 9 h)	Mean NFκB response ([11]; 1 µM, 12 h)	Mean NFκB response ([11]; 1 µM, 15 h)	Mean NFκB response ([11]; 1 µM, 18 h)	Mean NFκB response ([11]; 1 µM, 21 h)	also measured
COc1ccc2c(c1)OC(C)(C)C(c1ccccc1)C2c1ccc(OCCN2CCCC2)cc1 (stereo not drawn) [Ormeloxifene]	0.93 and 1.23 and 0.90 and 1.47 and 0.53 and 0.80	1.44 and 1.00 and 0.84 and 1.46	mediated resolution of the tunicamycin-induced endoplasmic reticulum stress	39%	1.06 and 1.01 and 0.96 and 1.00 and 1.02 and 0.99 and 1.05 (2×)	3755.51 GFP+-cells/confluence ∙ 1000	4450.99 GFP+-cells/confluence ∙ 1000	10042.81 GFP+-cells/confluence ∙ 1000	20884.44 GFP+-cells/confluence ∙ 1000	30159.52 GFP+-cells/confluence ∙ 1000	36246.87 GFP+-cells/confluence ∙ 1000	41125.44 GFP+-cells/confluence ∙ 1000	44312.79 GFP+-cells/confluence ∙ 1000	3914.66 GFP+-cells/confluence ∙ 1000	5719.43 GFP+-cells/confluence ∙ 1000	15929.12 GFP+-cells/confluence ∙ 1000	25867.46 GFP+-cells/confluence ∙ 1000	33826.67 GFP+-cells/confluence ∙ 1000	39021.43 GFP+-cells/confluence ∙ 1000	42782.99 GFP+-cells/confluence ∙ 1000	ΔTm at 20 µM ([1]; DSF, 20 µM, n=2): 0.51 °C; ΔTm at 20 µM ([2]; DSF, 20 µM, n=2): -2.59 °C; ΔTm at 20 µM ([5]; DSF, 20 µM, n=2): -0.1 °C; VP16 control [fold reporter gene activity] [7]: 1.02 fold reporter gene activity and 1.04 fold reporter gene activity and 1.38 fold reporter gene activity; ΔTm at 20 µM ([8]; DSF, 20 µM, n=2): -0.02 °C; ΔTm at 20 µM ([10]; DSF, 20 µM, n=2): -3.44 °C; Mean NFκB response ([11]; 1 µM, 24 h): 45591.11 GFP+-cells/confluence ∙ 1000; NF-κB activity (inflammatory response to ionomycin/PMA) [11]: no impact on NF-κB activity; Growth rate [GR] [12]: 0.58 and 1.95 and 0.92 and 1.05 and 0.91 and 0.78 and 1.00 and 2.25 and 0.88 and 10.36; ΔTm at 20 µM ([13]; DSF, 20 µM, n=2): 0 °C; ΔTm at 20 µM [14]: -2.68 °C; ΔTm at 20 µM ([15]; DSF, 20 µM, n=2): 0.15 °C; ΔTm at 20 µM ([16]; DSF, 20 µM, n=2): -3.83 °C; ΔTm at 20 µM ([17]; DSF, 20 µM, n=2): -2.04 °C; EC50 ([18]; (lit.), ref Supplementary Table 1, read-out: Potency [nM] EC50, NR3A1 (ERα)): 13 ± 0.4 nM; rel. activity from literature, NR3A1 (ERα): % of moxestrol ([18]; of moxestrol): 25 ± 2%
CCCc1c(-c2ccc(O)cc2)nn(-c2ccc(O)cc2)c1-c1ccc(O)cc1 [Propylpyrazoletriol]	1.04 and 1.18 and 0.79 and 1.33 and 1.63 and 1.23	1.15 and 0.83 and 0.85 and 0.82	failed to reduce ATF6 activity	96%	0.98 (2×) and 1.03 and 0.91 and 0.97 and 0.94 and 1.18 and 1.14	3210.54 GFP+-cells/confluence ∙ 1000	4272.75 GFP+-cells/confluence ∙ 1000	9949.66 GFP+-cells/confluence ∙ 1000	19765.59 GFP+-cells/confluence ∙ 1000	27110.00 GFP+-cells/confluence ∙ 1000	32836.67 GFP+-cells/confluence ∙ 1000	36663.33 GFP+-cells/confluence ∙ 1000	39666.67 GFP+-cells/confluence ∙ 1000	3501.92 GFP+-cells/confluence ∙ 1000	6059.91 GFP+-cells/confluence ∙ 1000	15582.73 GFP+-cells/confluence ∙ 1000	23751.78 GFP+-cells/confluence ∙ 1000	30496.67 GFP+-cells/confluence ∙ 1000	34710.00 GFP+-cells/confluence ∙ 1000	37963.33 GFP+-cells/confluence ∙ 1000	ΔTm at 20 µM [1]: 0.0212 °C; ΔTm at 20 µM [2]: -2.86 °C; ΔTm at 20 µM [5]: 1.72 °C; ΔTm at 20 µM [8]: -0.07 °C; ΔTm at 20 µM [10]: -3.23 °C; Mean NFκB response ([11]; 1 µM, 24 h): 40840.00 GFP+-cells/confluence ∙ 1000; NF-κB activity (inflammatory response to ionomycin/PMA) [11]: no impact on NF-κB activity; Growth rate [GR] [12]: 0.81 and 2.52 and 0.99 and 1.39 and 1.25 and 1.17 and 0.88 and 3.47 and 1.21 and 7.02; ΔTm at 20 µM [13]: 0.06 °C; ΔTm at 20 µM [15]: -0.78 °C; ΔTm at 20 µM [16]: -2.55 °C; ΔTm at 20 µM [17]: -2.26 °C; rel. activity from literature, NR3A1 (ERα): % of estradiol ([18]; of estradiol): 120%

From PMC11790914, “Chemogenomics for steroid hormone receptors (NR3)” (Communications Chemistry, 2025)
